Source: US9815850B2, “Compounds, compositions and methods” (Denali Therapeutics Inc., priority 2016, dated 2017)

Molecular target: GST-hRIPK1 (8-327) (Homo sapiens (Human), UniProt Q13546)
Assay: Fluorescent Polarization Binding (FP Binding) assay
Settings: 10 nM GST-hRIPK1 (8-327), 5 nM fluorescent labeled ligand; read-out: FP IC50
Protocol: Fluorescent Polarization Binding (FP Binding) assay (Berger S. B. et al. […] Maki J. L. et al. […] Test Compounds were serially diluted in DMSO at 100 fold final concentrations in the assay (1% DMSO final). […] For negative control the enzyme addition was replaced by assay buffer only. After addition of 5 μL of fluorescent labeled ligand at twice the final concentrations in assay buffer, the plate was incubated at RT for 30 min.

Chain of GST-hRIPK1 (8-327) (Q13546 8-327): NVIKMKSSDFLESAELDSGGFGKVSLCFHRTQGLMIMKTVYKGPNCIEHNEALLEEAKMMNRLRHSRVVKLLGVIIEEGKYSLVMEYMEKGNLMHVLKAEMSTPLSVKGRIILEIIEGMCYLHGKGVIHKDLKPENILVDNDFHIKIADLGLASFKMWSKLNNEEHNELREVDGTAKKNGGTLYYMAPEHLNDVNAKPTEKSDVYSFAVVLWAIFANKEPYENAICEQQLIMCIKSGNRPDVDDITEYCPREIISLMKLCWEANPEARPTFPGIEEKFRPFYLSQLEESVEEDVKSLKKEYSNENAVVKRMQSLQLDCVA

Row | SMILES | IC50 [µM]
1 | CN1C(=O)[C@H](NC(=O)c2nnc(Cc3ccccc3)[nH]2)C[C@H](F)c2ccccc21 (mixture of isomers) [Example 11B] | 1 to 10
2 | CN1C(=O)[C@@H](NC(=O)c2cc(Cc3ccccc3)on2)CCc2sc(Cl)cc21 (stereo in doubt) [Example 1A, 5-Benzyl-N-(2-chloro-4-methyl-5-oxo-4H,5H,6H,7H,8H-thieno[3,2-b]azepin-6-yl)-1,2-oxazole-3-carboxamide] | 0.0001 to 1
3 | CN1C(=O)[C@H](NC(=O)c2cc(Cc3ccccc3)on2)CCc2sc(Cl)cc21 (stereo in doubt) [Example 1B, 5-Benzyl-N-(2-chloro-4-methyl-5-oxo-4H,5H,6H,7H,8H-thieno[3,2-b]azepin-6-yl)-1,2-oxazole-3-carboxamide] | 0.0001 to 1
4 | CN1C(=O)C(NC(=O)c2cc(Cc3ccccc3)on2)[C@@H]2C[C@@H]2c2ccccc21 (stereo in doubt) [Example 7B, 5-benzyl-N-((2S)-4-methyl-3-oxo-1,1a,2,3,4,8b-hexahydrobenzo[b]cyclopropa[d]azepin-2-yl)isoxazole-3-carboxamide] | > 10
5 | CN1C(=O)C(NC(=O)c2cc(Cc3ccccc3)on2)CC(F)c2ccccc21 (stereo not shown) [Example 2B, 5-benzyl-N-(5-fluoro-1-methyl-2-oxo-2,3,4,5-tetrahydro-1H-benzo[b]azepin-3-yl)isoxazole-3-carboxamide] | 0.0001 to 1
6 | CN1C(=O)[C@@H](NC(=O)c2cc(Cc3ccccc3)on2)[C@H]2C[C@H]2c2ccccc21 [Example 7A, 5-benzyl-N-((2S)-4-methyl-3-oxo-1,1a,2,3,4,8b-hexahydrobenzo[b]cyclopropa[d]azepin-2-yl)isoxazole-3-carboxamide] | 0.0001 to 1
7 | CN1C(=O)[C@@H](NC(=O)c2nnc(Cc3ccccc3)[nH]2)C[C@@H](F)c2ccccc21 [Example 11A] | 0.0001 to 1
8 | CN1C(=O)[C@@H](NC(=O)c2nnc(Cc3ccccc3)[nH]2)C[C@H](F)c2ccccc21 [Example 12A] | 0.0001 to 1
9 | CN1C(=O)[C@H](NC(=O)c2nnc(Cc3ccccc3)[nH]2)C[C@@H](F)c2ccccc21 [Example 12B] | 0.0001 to 1
10 | CN1C(=O)[C@@H](NC(=O)c2cc(Cc3ccccc3)[nH]n2)CC2(CC2)c2ccccc21 [Example 59, 5-benzyl-N-[(3S)-1-methyl-2-oxo-1,2,3,4-tetrahydrospiro[l-benzazepine-5,1-cyclopropane]-3-yl]-1H-pyrazole-3-carboxamide] | 0.0001 to 1
11 | CN1C(=O)[C@@H](NC(=O)c2cc(Cc3ccccc3)[nH]n2)[C@H]2C[C@H]2c2ccccc21 [Example 60A, 5-benzyl-N-((1aS,2S,8bR)-4-methyl-3-oxo-1,1a,2,3,4,8b-hexahydrobenzo[b]cyclopropa[d]azepin-2-yl)-1H-pyrazole-3-carboxamide] | 0.0001 to 1
12 | CN1C(=O)[C@H](NC(=O)c2cc(Cc3ccccc3)[nH]n2)[C@@H]2C[C@@H]2c2ccccc21 [Example 60B, 5-benzyl-N-((1aR,2R,8bS)-4-methyl-3-oxo-1,1a,2,3,4,8b-hexahydrobenzo[b]cyclopropa[d]azepin-2-yl)-1H-pyrazole-3-carboxamide] | > 3
13 | CN1C(=O)[C@@H](NC(=O)c2coc(C3(c4ccccc4)CC3)n2)COc2ccccc21 [Example 61, (S)—N-(5-methyl-4-oxo-2,3,4,5-tetrahydrobenzo[b][1,4]oxazepin-3-yl)-2-(1-phenylcyclopropyl)oxazole-4-carboxamide] | 0.0001 to 1
14 | O=C(N[C@H]1COc2cccnc2NC1=O)c1cc(C2(c3ccccc3)CC2)on1 [Example 62, (S)—N-(4-oxo-2,3,4,5-tetrahydropyrido[3,2-b][1,4]oxazepin-3-yl)-5-(1-phenylcyclopropyl)isoxazole-3-carboxamide] | 0.0001 to 1
15 | CN1C(=O)[C@@H](NC(=O)c2ncc(C3(c4ccccc4)CC3)s2)COc2cccnc21 [Example 63, (S)—N-(5-methyl-4-oxo-2,3,4,5-tetrahydropyrido[3,2-b][1,4]oxazepin-3-yl)-5-(1-phenylcyclopropyl)thiazole-2-carboxamide] | 0.0001 to 1
16 | CN1C(=O)[C@@H](NC(=O)c2nn(Cc3ccccc3)cc2F)COc2ccccc21 [Example 64, (S)-1-benzyl-4-fluoro-N-(5-methyl-4-oxo-2,3,4,5-tetrahydrobenzo[b][1,4]oxazepin-3-yl)-1H-pyrazole-3-carboxamide] | 0.0001 to 1
17 | CN1C(=O)[C@@H](NC(=O)c2nnc(Cc3ccccc3)[nH]2)[C@@H]2C[C@@H]2c2ccccc21 [Example 67A, 5-benzyl-N-((1aR,2S,8bS)-4-methyl-3-oxo-1,1a,2,3,4,8b-hexahydrobenzo[b]cyclopropa[d]azepin-2-yl)-4H-1,2,4-triazole-3-carboxamide] | 0.0001 to 1

Row | SMILES | IC50 [µM]
18 | CN1C(=O)[C@H](NC(=O)c2nnc(Cc3ccccc3)[nH]2)[C@H]2C[C@H]2c2ccccc21 [Example 67B, 5-benzyl-N-((1aS,2R,8bR)-4-methyl-3-oxo-1,1a,2,3,4,8b-hexahydrobenzo[b]cyclopropa[d]azepin-2-yl)-4H-1,2,4-triazole-3-carboxamide] | > 3
19 | O=C(N[C@H]1COc2ccccc2-n2ccnc21)c1nnc(Cc2ccccc2)[nH]1 [Example 68A, (R)-5-benzyl-N-(4,5-dihydrobenzo[b]imidazo[1,2-d][1,4]oxazepin-4-yl)-4H-1,2,4-triazole-3-carboxamide] | 0.0001 to 1
20 | O=C(N[C@@H]1COc2ccccc2-n2ccnc21)c1nnc(Cc2ccccc2)[nH]1 [Example 68B, (S)-5-benzyl-N-(4,5-dihydrobenzo[b]imidazo[1,2-d][1,4]oxazepin-4-yl)-4H-1,2,4-triazole-3-carboxamide] | > 3
21 | O=C(N[C@H]1CCc2ccccc2-n2cnnc21)c1nnc(Cc2ccccc2)[nH]1 [Example 69A, (S)-5-benzyl-N-(5,6-dihydro-4H-benzo[f][1,2,4]triazolo[4,3-a]azepin-4-yl)-4H-1,2,4-triazole-3-carboxamide] | 0.0001 to 1
22 | O=C(N[C@@H]1CCc2ccccc2-n2cnnc21)c1nnc(Cc2ccccc2)[nH]1 [Example 69B, (R)-5-benzyl-N-(5,6-dihydro-4H-benzo[f][1,2,4]triazolo[4,3-a]azepin-4-yl)-4H-1,2,4-triazole-3-carboxamide] | > 3
23 | O=C(N[C@H]1COc2ccccc2-n2ccnc21)c1cc(Cc2ccccc2)on1 [Example 70A, (R)-5-benzyl-N-(4,5-dihydrobenzo[b]imidazo[1,2-d][1,4]oxazepin-4-yl)isoxazole-3-carboxamide] | 0.0001 to 1
24 | O=C(N[C@@H]1COc2ccccc2-n2ccnc21)c1cc(Cc2ccccc2)on1 [Example 70B, (S)-5-benzyl-N-(4,5-dihydrobenzo[b]imidazo[1,2-d][1,4]oxazepin-4-yl)isoxazole-3-carboxamide] | > 3
25 | O=C(N[C@H]1CCc2ccccc2-n2cnnc21)c1cc(Cc2ccccc2)on1 [Example 71A, (S)-5-benzyl-N-(5,6-dihydro-4H-benzo[f][1,2,4]triazolo[4,3-a]azepin-4-yl)isoxazole-3-carboxamide] | 0.0001 to 1
26 | O=C(N[C@@H]1CCc2ccccc2-n2cnnc21)c1cc(Cc2ccccc2)on1 [Example 71B, (R)-5-benzyl-N-(5,6-dihydro-4H-benzo[f][1,2,4]triazolo[4,3-a]azepin-4-yl)isoxazole-3-carboxamide] | > 3
27 | CN1C(=O)[C@@H](NC(=O)c2cc(C3(c4ccccc4)CC3)[nH]n2)COc2ccccc21 [Example 72, (S)—N-(5-methyl-4-oxo-2,3,4,5-tetrahydrobenzo[b][1,4]oxazepin-3-yl)-5-(1-phenylcyclopropyl)-1H-pyrazole-3-carboxamide] | 0.0001 to 1
28 | CN1C(=O)[C@@H](NC(=O)c2cc(C3(c4ccccc4)CC3)[nH]n2)COc2cccnc21 [Example 73, (S)—N-(5-methyl-4-oxo-2,3,4,5-tetrahydropyrido[3,2-b][1,4]oxazepin-3-yl)-5-(1-phenylcyclopropyl)-1H-pyrazole-3-carboxamide] | 0.0001 to 1
29 | CN1C(=O)[C@@H](NC(=O)c2nn(Cc3ccccn3)cc2F)COc2cccnc21 [Example 74, (S)-4-fluoro-N-(5-methyl-4-oxo-2,3,4,5-tetrahydropyrido[3,2-b][1,4]oxazepin-3-yl)-1-(pyridin-2-ylmethyl)-1H-pyrazole-3-carboxamide] | 0.0001 to 1
30 | CN1C(=O)[C@H](NC(=O)c2nnc(Cc3ccccc3)[nH]2)[C@@H]2C[C@@H]2c2cccnc21 [Example 75B, 5-benzyl-N-((1aR,2R,8bS)-4-methyl-3-oxo-1,1a,2,3,4,8b-hexahydrocyclopropa[d]pyrido[2,3-b]azepin-2-yl)-4H-1,2,4-triazole-3-carboxamide] | > 3
31 | CN1C(=O)[C@@H](NC(=O)c2nn(Cc3ccccc3)cc2F)COc2cccnc21 [Example 76, (S)-1-benzyl-4-fluoro-N-(5-methyl-4-oxo-2,3,4,5-tetrahydropyrido[3,2-b][1,4]oxazepin-3-yl)-1H-pyrazole-3-carboxamide] | 0.0001 to 1
32 | CN1C(=O)[C@@H](NC(=O)c2ncc(C3(c4ccccc4)CC3)[nH]2)COc2ccccc21 [Example 78, (S)—N-(5-methyl-4-oxo-2,3,4,5-tetrahydrobenzo[b][1,4]oxazepin-3-yl)-5-(1-phenylcyclopropyl)-1H-imidazole-2-carboxamide] | 0.0001 to 1
33 | CN1C(=O)[C@@H](NC(=O)c2nc3cccc(-c4ccccc4F)c3s2)COc2ccccc21 [Example 79, (S)-7-(2-fluorophenyl)-N-(5-methyl-4-oxo-2,3,4,5-tetrahydrobenzo[b][1,4]oxazepin-3-yl)benzo[d]thiazole-2-carboxamide] | 0.0001 to 1
34 | CN1C(=O)[C@@H](NC(=O)c2cc(Cc3ccccc3)[nH]n2)[C@H]2C[C@H]2c2cccnc21 [Example 80A, 5-benzyl-N-((1aS,2S,8bR)-4-methyl-3-oxo-1,1a,2,3,4,8b-hexahydrocyclopropa[d]pyrido[2,3-b]azepin-2-yl)-1H-pyrazole-3-carboxamide] | 0.0001 to 1
